Converted amounts (≈) assume the structure as drawn.
How the values were obtained:
Assay type in all cases: functional
Staphylococcus aureus [1] = assay: Antimicrobial activity against methicillin-resistant Staphylococcus aureus
Escherichia coli [2] = assay: Antimicrobial activity against Escherichia coli 49
Haemophilus influenzae [3] = assay: Antimicrobial activity against LS2 Efflux knock-out Haemophilus influenzae
Staphylococcus aureus [4] = assay: Antimicrobial activity against Staphylococcus aureus Oxford
Streptococcus pneumoniae [5] = assay: Antimicrobial activity against penicillin- and erythromycin-resistant Streptococcus pneumoniae
Pseudomonas aeruginosa = assay: Antimicrobial activity against Pseudomonas aeruginosa ATCC 27853
Enterococcus faecalis = assay: Antimicrobial activity against vancomycin-susceptible Enterococcus faecalis ATCC 29212
Escherichia coli [6] = assay: Antimicrobial activity against Escherichia coli ATCC 25922
Staphylococcus aureus [7] = assay: Antimicrobial activity against vancomycin-susceptible Staphylococcus aureus ATCC 25923
Enterococcus faecium = assay: Antimicrobial activity against vancomycin-resistant Enterococcus faecium
Streptococcus pneumoniae [8] = assay: Antimicrobial activity against penicillin- and erythromycin-resistant Streptococcus pneumoniae in presence of 2.5% horse blood
Staphylococcus aureus [9] = assay: Antimicrobial activity against methicillin-sensitive Staphylococcus aureus ATCC 13709
Haemophilus influenzae [10] = assay: Antimicrobial activity against Haemophilus influenzae ATCC 31517 MMSA
Streptococcus pneumoniae [11] = assay: Antimicrobial activity against erythromycin-susceptible Streptococcus pneumoniae ATCC 49619
Escherichia coli [12] = assay: Antimicrobial activity against Escherichia coli 50

SMILES	MIC (Staphylococcus aureus [1]) [µg/mL]	MIC (Escherichia coli [2]) [µg/mL]	MIC (Haemophilus influenzae [3]) [µg/mL]	MIC (Staphylococcus aureus [4]) [µg/mL]	MIC (Streptococcus pneumoniae [5]) [µg/mL]	MIC (Pseudomonas aeruginosa) [µg/mL]	MIC (Enterococcus faecalis) [µg/mL]	MIC (Escherichia coli [6]) [µg/mL]	MIC (Staphylococcus aureus [7]) [µg/mL]	MIC (Enterococcus faecium) [µg/mL]	MIC (Streptococcus pneumoniae [8]) [µg/mL]	MIC (Staphylococcus aureus [9]) [µg/mL]	MIC (Haemophilus influenzae [10]) [µg/mL]	MIC (Streptococcus pneumoniae [11]) [µg/mL]	MIC (Escherichia coli [12]) [µg/mL]
CCCC(=O)N1CC(=O)/C(=C(\CC23CC4CC(CC(C4)C2)C3)NCCCN2CCCCC2C)C1=O (stereo not drawn)	64 (≈ 132 µM)	> 32	32 (≈ 66.2 µM)	64 (≈ 132 µM)	32 (≈ 66.2 µM)	> 32	64 (≈ 132 µM)	> 32	64 (≈ 132 µM)	64 (≈ 132 µM)	32	64 (≈ 132 µM)	> 64	32 (≈ 66.2 µM)	> 32
CSCCC1C(=O)/C(=C(\CC23CC4CC(C)(CC(C)(C4)C2)C3)NCC(C)(C)CN(C)C)C(=O)N1C(C)=O (stereo not drawn)	> 64	> 32	4 (≈ 7.52 µM)	> 64	> 64	> 32	> 64	> 32	> 64	> 64	> 64	> 64	> 64	> 64	> 32
CCCCC/C(NC(C)CCCN(CC)CC)=C1\C(=O)C(CCSC)N(C(=O)CC(C)CC(C)(C)C)C1=O (stereo not drawn)	16 (≈ 29 µM)	> 32	8 (≈ 14.5 µM)	8 (≈ 14.5 µM)	4 (≈ 7.25 µM)	> 32	16 (≈ 29 µM)	> 32	16 (≈ 29 µM)	8 (≈ 14.5 µM)	8	16 (≈ 29 µM)	> 64	8 (≈ 14.5 µM)	> 32
CCCCCCCCCCC/C(NCCCOC(C)C)=C1/C(=O)N[C@@H](CCCC(=O)NCCCOC(C)C)C1=O	> 64	> 32	8 (≈ 14.1 µM)	> 64	16 (≈ 28.3 µM)	> 32	> 64	> 32	> 64	> 64	> 64	> 64	> 64	> 64	> 32
CCCCCCCCCCC/C(NCCCOC(C)C)=C1\C(=O)[C@@H]2CCCC(=O)N2C1=O	> 64	> 32	4 (≈ 8.92 µM)	> 64	16 (≈ 35.7 µM)	> 32	> 64	> 32	> 64	> 64	> 64	> 64	> 64	> 64	> 32
CCCCCCCCC/C(NC(C)CCCN(CC)CC)=C1/C(=O)N2[C@@H](C(C)(C)C)OC[C@]2(C(=O)OC)C1=O (stereo partly drawn)	16 (≈ 29.1 µM)	> 32	> 64	16 (≈ 29.1 µM)	4 (≈ 7.28 µM)	> 32	16 (≈ 29.1 µM)	> 32	16 (≈ 29.1 µM)	8 (≈ 14.6 µM)	16	16 (≈ 29.1 µM)	> 64	4 (≈ 7.28 µM)	> 32
CCOC(=O)[C@]12CO[C@H](C(C)(C)C)N1C(=O)/C(=C(/CC13CC4CC(CC(C4)C1)C3)NC(C)CCCN(CC)CC)C2=O (stereo partly drawn)	64 (≈ 109 µM)	> 32	16 (≈ 27.3 µM)	32 (≈ 54.6 µM)	16 (≈ 27.3 µM)	> 32	32 (≈ 54.6 µM)	> 32	64 (≈ 109 µM)	32 (≈ 54.6 µM)	32	32 (≈ 54.6 µM)	> 64	32 (≈ 54.6 µM)	> 32
CCOC(=O)[C@]12CO[C@H](C(C)(C)C)N1C(=O)/C(=C(/CC13CC4CC(CC(C4)C1)C3)NCCCN1CCOCC1)C2=O	> 64	> 32	8 (≈ 14 µM)	> 64	> 64	> 32	> 64	> 32	> 64	> 64	> 64	> 64	> 64	> 64	> 32
CCOC(=O)[C@]12CO[C@H](C(C)(C)C)N1C(=O)/C(=C(/CC(F)(F)C(F)(F)C(F)(F)C(F)(F)C(F)(F)F)NCCCN1CCOCC1)C2=O	32 (≈ 45.4 µM)	> 32	8 (≈ 11.3 µM)	16 (≈ 22.7 µM)	8 (≈ 11.3 µM)	> 32	32 (≈ 45.4 µM)	> 32	16 (≈ 22.7 µM)	16 (≈ 22.7 µM)	16	32 (≈ 45.4 µM)	> 64	16 (≈ 22.7 µM)	> 32
O=C(O)c1cn(C2CC2)c2cc(N3CCNCC3)c(F)cc2c1=O [CIPROFLOXACIN]	–	–	≤ 0.06	0.12 (≈ 0.362 µM)	1 (≈ 3.02 µM)	–	1 (≈ 3.02 µM)	–	0.5 (≈ 1.51 µM)	32 (≈ 96.6 µM)	1	0.12 (≈ 0.362 µM)	0.5 (≈ 1.51 µM)	1 (≈ 3.02 µM)	–
CC(=O)NC[C@H]1CN(c2ccc(N3CCOCC3)c(F)c2)C(=O)O1 [LINEZOLID]	–	–	4 (≈ 11.9 µM)	–	–	–	–	–	–	2 (≈ 5.93 µM)	–	–	16 (≈ 47.4 µM)	–	–

Source: ChEMBL document CHEMBL3232809, “Synthesis, antibiotic activity and structure-activity relationship study of some 3-enaminetetramic acids” (2014)
